Laboratory results: paper PMC5118696, “Identification of inhibitors that dually target the new permeability pathway and dihydroorotate dehydrogenase in the blood stage of Plasmodium falciparum” (Scientific Reports, 2016)
Where two headings read alike, the source gives them in different places.

How the values were obtained:
[1] = tested on: Hyp1-NLuc Plasmodium falciparum-infected erythrocytes (new permeability pathway, NPP); experiment: microbe, parasite or virus in culture; conditions: Erythrocyte, 0.33 h, read-out: Mean RLU at 28 min (As % of DMSO control)
[2] = target: T1, PfDHODH (dihydroorotate dehydrogenase) (Plasmodium falciparum, UniProt Q08210); experiment: DCIP reduction enzyme assay with recombinant PfDHODH; IC50 extrapolated, inhibition did not reach […]; assay type: biochemical
T1 construct: gene PFF0160c; amino acids 169–569
T1 sequence (Q08210 169-569): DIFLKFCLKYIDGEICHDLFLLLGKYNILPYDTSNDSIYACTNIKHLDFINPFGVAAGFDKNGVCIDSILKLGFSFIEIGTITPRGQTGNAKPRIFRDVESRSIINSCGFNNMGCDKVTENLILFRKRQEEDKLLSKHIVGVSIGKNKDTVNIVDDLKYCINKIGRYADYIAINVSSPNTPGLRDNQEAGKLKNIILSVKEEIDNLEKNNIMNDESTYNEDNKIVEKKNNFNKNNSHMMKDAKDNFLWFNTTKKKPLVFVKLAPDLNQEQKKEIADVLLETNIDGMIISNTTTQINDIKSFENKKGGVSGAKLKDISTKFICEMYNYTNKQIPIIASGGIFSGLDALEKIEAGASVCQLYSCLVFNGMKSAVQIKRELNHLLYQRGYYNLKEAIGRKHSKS

[3] = tested on: Hyp1-NLuc Plasmodium falciparum-infected erythrocytes (new permeability pathway, NPP); experiment: microbe, parasite or virus in culture; conditions: Erythrocyte, 0.33 h, read-out: % of control remaining

Structure (SMILES)	activity at 2 µM [1] [%]	IC50 [2] [µM]	activity at 2 µM [3] [%]
Cc1ccc(CSCc2ccc(C(=O)NC3CC3)o2)cc1 [MMV007571]	22	~158	26
COc1ccc(-n2ccnc2SCC(=O)Nc2cc(C)ccc2C)c(OC)c1 [MMV019258]	117		115
O=C(NCC1Cc2cccc(-c3ccncc3)c2O1)c1csc2c1CCCC2 (stereo not shown) [MMV665954]	104		117
COc1ccccc1N1CCN(C(CNS(=O)(=O)c2ccc(Cl)cc2)c2cccnc2)CC1 (stereo not shown) [MMV665914]	102		97.5
CCOC(=O)c1c(NC(=O)c2ccccc2)sc2c(O)c(CN(CC)CC)ccc12 [MMV665831]	103		103
CCCCCCc1cc(O)c2c3c(c(=O)oc2c1)CCC(C)C3 (stereo not shown) [MMV665987]	89.8		94.7
CC(C)CCNCC(O)Cn1c2ccccc2c2ccccc21 (stereo not shown) [MMV006787]	97.5		98.6
CCOC(=O)c1cn(CC)c2cc(N3CCCCC3)c(F)cc2c1=O [MMV665827]	104		100
COC(=O)c1ccc(Cl)c2c1C1C=CCC1C(c1cccc3ccccc13)N2 (stereo not shown) [MMV667489]	103		100
Cc1cc(N(C)C)nc(Nc2ccc(NC(=O)Nc3ccccc3)cc2)n1 [MMV020243]	106		104
Cc1cc(NCCN2CCCCC2)c2ccc3ccccc3c2n1 [MMV006203]	103		99.9
COc1cc2c3cc1Oc1c(OC)c(OC)cc4c1C(Cc1ccc(O)c(c1)Oc1ccc(cc1)CC3N(C)CC2)N(C)CC4 (stereo not shown) [MMV007474]	104		103
Cc1cc(Nc2ccc(Cl)cc2)n2nc(C(F)(F)F)nc2n1 [MMV011256]	111		109
CCc1c(C)c(=N)c2ccccc2n1C [MMV006278]	98.8		99.6
FC(F)(F)c1cccc(Nc2nc3ccccc3nc2Nc2cccc(C(F)(F)F)c2)c1 [MMV665794]	103		109
Cc1[nH]c(-c2ccc(F)cc2)cc1C(=O)NC1CCN(Cc2ccccc2)CC1 [MMV019738]	109		95.2
COc1ccc(CN2CCCC(C(=O)c3ccc(C(F)(F)F)cc3)C2)c(O)c1 (stereo not shown) [MMV666060]	103		114
COc1ccccc1N1C(=N)SC(=Cc2ccc(OCc3ccccc3F)cc2)C1=O [MMV007199]	86.7		62.6
CCCCc1ccc(NS(=O)(=O)c2cc3c4c(c2)CCN4C(=O)CC3)cc1 [MMV001255]	100		89.2

Structure (SMILES)	activity at 2 µM [1] [%]	IC50 [2] [µM]	activity at 2 µM [3] [%]
COc1ccc(N2CCN(C(CNC(=O)CC(C)(C)C)c3ccc4c(c3)OCO4)CC2)cc1 (stereo not shown) [MMV665908]	92.5		97.1
Nc1ccn(C2O[C@H](CO)[C@@H](O)[C@H]2O)c(=O)n1 (stereo partly shown) [MMV638723]	86.2		88.6
N#Cc1nc(Cc2cccc3ccccc23)oc1N1CCN(C(c2ccccc2)c2ccccc2)CC1 [MMV396726]	99.9		99.5
COc1cccc(C(=O)Nc2ccc(-c3nc4ccccc4[nH]3)cc2)c1 [MMV019762]	96.5		97.1
COc1ccc(C2c3ccc4ccccc4c3Oc3ncn(CCCn4ccnc4)c(=N)c32)cc1OC (stereo not shown) [MMV667490]	102		98.4
Cc1ccc2c(C)nc(Nc3nc(C)cc(-c4ccccc4)n3)nc2c1 [MMV007041]	104		98.8
Cc1ccc2cc3c(N)c4c(C)ccc(C)c4nc3nc2c1 [MMV666079]	96		104
OC1CCCCC1C1(NC(=S)Nc2ccccc2)CCCCC1 (stereo not shown) [MMV665980]	101		101
COc1ccc(OC)c(C2C3=C(CC(C)(C)CC3=O)N(c3ccc(Cl)c(Cl)c3)C3=C2C(=O)CC(C)(C)C3)c1 [MMV007208]	102		104
CN1CCN(c2ncnc3c2[nH]c2ccc(Cl)cc23)CC1 [MMV396704]	95.9		95.6
CCOC(=O)C1(Cc2ccccc2)CCN(Cc2cccc(OC)c2O)CC1 [MMV666109]	93.9		97.9
Cc1ccc(S(=O)(=O)c2c(COC(=O)c3cccc(C)c3)c(-c3ccccc3)nn2C)cc1 [MMV665936]	97		100
Cc1ccc(C(=O)c2oc3ccc4c(C)cc(=O)oc4c3c2C)cc1 [MMV086103]	94.6		95.7
Oc1c2c(nc3cc(-c4ccccc4)nn13)CCCC2 [MMV008270]	100		56.9
Clc1cc(Br)ccc1-c1ccc(CNCC2CCNCC2)o1 [MMV019918]	114		111
OC(CNC1CCCC1)Cn1c2ccccc2c2ccccc21 (stereo not shown) [MMV000848]	112		110
CCOc1cc(Cl)c(C(C)NC(=O)c2cccc(OC)c2)cc1OCC (stereo not shown) [MMV665803]	113		124
COc1ccc(C2NCCc3c2[nH]c2ccccc32)cc1CN1CCN(c2ccc(F)cc2)CC1 (stereo not shown) [MMV019690]	106		113
Cc1cc(=O)oc2c1ccc1oc(C(=O)c3ccccc3)c(C)c12 [MMV006753]	103		108

Structure (SMILES)	activity at 2 µM [1] [%]	IC50 [2] [µM]	activity at 2 µM [3] [%]
COc1ccc(C(=O)Nc2ccc(Cl)cc2C(=O)Nc2ccncc2)cc1 [MMV665799]	100		111
Cc1ccc(-c2cc3c(nn2)-c2ccccc2C3=O)cc1 [MMV666021]	104		99.7
Cc1c(C)n(Cc2ccc(F)cc2)c2ccc(C(=O)NCc3ccco3)cc12 [MMV008149]	102		118
CCOc1c(Cl)cc(CNC(C)C(O)c2ccccc2)cc1OC (stereo not shown) [MMV665857]	100		108
COc1ccc(C(=O)C2CC2c2ccc(Cl)cc2)cc1 (stereo not shown) [MMV665924]	100		103
CCC(=O)Nc1nnc(Cc2ccc(OC)c(OC)c2)s1 [MMV020942]	102		102
CSC1=NC(=Nc2c(C)cccc2C)C2(CCC(C(C)(C)C)CC2)N1c1ccc(Cl)cc1 (stereo not shown) [MMV666596]	106		107
CCN(CC)c1cc(C)c2cc(NC(=O)c3cccc(OC)c3)ccc2n1 [MMV000498]	107		118
CCOc1cc2c(cc1OCC)C(c1cc(C)c(O)c(C)c1)NCC2 (stereo not shown) [MMV000483]	103		102
CC(C)(C)CC(C)(C)NCC(O)COc1ccc2c(c1)CCC2 (stereo not shown) [MMV665817]	106		120
CCOc1ccc2c(c1)CN(Cc1ccc(Cl)cc1)CO2 [MMV000443]	99.2		94.2
Cc1nc2ccccc2c(O)c1CC=C(Cl)Cl [MMV665994]	96.6		101
CCn1c(CN2CCN(Cc3ccccc3)CC2)nc2cc(NC(=O)c3cccs3)ccc21 [MMV020439]	20.1		18.4
CN(C)c1ccc(N=Cc2ccc(N3CCOCC3)cc2)cc1 [MMV073843]	104		104
Cc1ccc(Cn2c(N3CCC(C(=O)NCc4cccs4)CC3)nc3ccccc32)cc1 [MMV007564]	96.6		104
COc1ccc(-c2nc(N3CCN(C(=O)C4CCCCC4)CC3)c3c4c(sc3n2)CCCC4)cc1 [MMV396594]	88.9		87.1
Cc1ccccc1OCCSc1nc2ccc(NC(=O)c3ccccc3)cc2s1 [MMV007577]	97.3		98.1
CCOc1c(Cl)cc(CNCC(O)c2ccccc2)cc1OC (stereo not shown) [MMV396632]	99.9		101
Cc1cc(NC(=O)c2ccc(-c3ccccc3)cc2)no1 [MMV018984]	111		110
